{"source": "paper PMC6387142", "about": "“Multi-Residue Method for the Analysis of Stilbene Estrogens in Milk” (International Journal of Molecular Sciences, 2019)", "target": "T1, estrogen receptor α ligand binding domain (ER-LBD) (Homo sapiens, UniProt P03372)", "T1 construct": "gene ESR1", "T1 sequence (P03372 311-547 limits assumed)": "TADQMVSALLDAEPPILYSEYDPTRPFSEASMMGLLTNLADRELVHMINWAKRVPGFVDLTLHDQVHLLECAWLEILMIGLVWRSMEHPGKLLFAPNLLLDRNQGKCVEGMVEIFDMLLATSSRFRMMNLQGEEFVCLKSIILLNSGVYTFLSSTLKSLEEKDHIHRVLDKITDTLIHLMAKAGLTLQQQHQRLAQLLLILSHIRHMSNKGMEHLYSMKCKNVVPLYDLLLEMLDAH", "test": "competitive fluorescence polarization, displacement of coumestrol from purified ER-LBD", "data": [{"smiles": "C/C=C(/C(=C/C)c1ccc(O)cc1)c1ccc(O)cc1", "note": "[dienestrol]", "values": [{"measurement": "IC50", "value": 12.9, "unit": "nM"}]}, {"smiles": "CC[C@H](c1ccc(O)cc1)[C@@H](CC)c1ccc(O)cc1", "note": "[hexestrol]", "values": [{"measurement": "IC50", "value": 9.27, "unit": "nM"}]}]}
